How the values were obtained:
[1] = tested on: A549 injected xenograft mouse model; experiment: Tumorigenicity assay, xenograft mouse model; format: in vivo, BALB/c nude mice
Procedure: Tumorigenicity assays were performed using BALB/c nude mice, adapted from previously described protocols with slight modifications. To establish the xenograft cancer model, cancer cells (1 × 10^6) were subcutaneously injected into the right dorsal side of 6-week-old male BALB/c nude mice to induce tumor formation. The mice were randomly divided into 2 groups (n = 15). One group served as the control, and the other groups were treated with JH62 at doses of 10 mg/kg, via intraperitoneal injection twice a week. The mice in the control group were administered an equal volume of DMSO as the solvent control. The tumor sizes were measured weekly for three weeks. After that, the mice were sacrificed, and the tumors were isolated and weighed. All animal studies were approved by the Ethics Committee of South China Agricultural University.
To evaluate the efficacy of JH62 in inhibiting tumorigenesis in vivo, a cancer xenograft model was established by transplanting cancer cells into the right flank of nude mice. The mice were treated with JH62 (10 mg/kg body weight) twice weekly for three weeks, and tumor volume changes were regularly monitored during this period. […] After 20 days of treatment, the average weight of solid tumors in the JH62-treated group was 186.3 mg, compared to 693.4 mg in the control group. The average tumor size in the control group was approximately 900 mm^3, while in the JH62-treated group, it was only about 190 mm^3 (Figure 2H,I).

A549 cells [2] = experiment: Chromosome staining experiment; format: cell-based, human; details: A549, 5 μM DOX or 25 μM JH62 for 6 h
Procedure: Metaphase chromosome spreads were prepared from A549 cells. Briefly, A549 cells were cultured. After treatment with JH62 or DOX, cells were incubated with Colcemid (Gibco BRL; 0.2 μg/mL final concentration) for 2 h to arrest cells in metaphase. Cells were then subjected to hypotonic treatment in KCl (0.075 M) at 37 °C for 5 min, and fixed by repeated washing with ice-cold freshly prepared 3:1 (vol/vol) methanol:acetic acid. Chromosome spreads were prepared on premarked glass slides using the “drop-cryo” protocol. The chromosome suspension was dropped onto a slide. This was followed by adding three drops of 45% acetic acid and placing a coverslip over the suspension. The slide was then inverted and placed on dry ice for 15 min. The spreads were postfixed in 2.5% glutaraldehyde in cacodylate buffer (pH 7.4, 75 mM) for 15 min and washed with cacodylate buffer (0.1 M). The chromosomes were stained with Vista Green DNA dye (Cell Biolabs, Singapore). After staining, the preparations were washed in water for 5, 10, and 15 min, then dehydrated using a series of ethanol solutions as follows: 5 min in a 70% solution, 10 min in an 85% solution, and 15 min in 100% ethanol. Finally, slides were mounted with a permanent mounting medium, sealed, and analyzed by microscopy.

A549 lung cancer cells = experiment: Cell death inhibitor rescue (zVAD-fmk, Nec-1); format: cell-based, human; details: A549, zVAD-fmk and Nec-1 individually or in combination
Excerpt: Therefore, we investigated whether zVAD-fmk and Nec-1 could attenuate JH62-induced cell death in A549 lung cancer cells.

[3] = tested on: pqs gene cluster in ΔpqsA mutant strain; experiment: Effect of exogenous JH62 on transcription of the pqs gene cluster; format: cell-based, Pseudomonas aeruginosa; details: ΔpqsA mutant supplemented with exogenous JH62
Excerpt: Since the pqs gene cluster is responsible for JH62 biosynthesis, we determined whether JH62 itself could regulate the expression of this cluster, potentially establishing a feedback loop. To this end, we supplemented the JH62-deficient ΔpqsA mutant with exogenous JH62 and assessed the pqs cluster transcription.

A549 cells [4] = experiment: DNA fragmentation analysis (genomic DNA electrophoresis); format: cell-based, human; details: A549, 24 h; JH62 5–100 µM, DOX 1 and 5 μM
Procedure: Genomic DNA fragmentation was analyzed by agarose gel electrophoresis using previously described methods. A549 cells were seeded in 6 cm tissue culture dishes and cultured overnight. Before treatment with JH62 or DOX, the cells were cultured in DMEM lacking FBS for 16 h. After treatment, the cells were then washed three times with PBS and genomic DNA was extracted using a MasterPure™ DNA Purification Kit (Lucigen Corporation, Middleton, WI, USA). The DNA pellet was airdried and resuspended in Tris-HCl (pH 8.0, 10 mM). DNA samples (2.5 μg) were separated by 1% agarose gel electrophoresis in TAE buffer containing ethidium bromide.

A549 cells [5] = experiment: Comet assay; format: cell-based, human; details: A549, 1, 8, and 12 h
Procedure: Residual DNA damage was detected by alkaline single cell gel electrophoresis (Comet Assay) using the Trevigen Comet Assay Kit (Trevigen, Gaithersburg, MD, USA) following the manufacturer’s protocol with slight modifications. […] The treated cells were trypsinized and pelleted by centrifugation. The cell pellets were washed and resuspended in 2 mL of ice-cold PBS. The cell suspension was mixed 1:10 (vol/vol) with low-melting point agar at 42 °C and immediately pipetted onto a CometSlide™. Slides were incubated at 4 °C in the dark for 30 min, immersed in chilled lysis solution and incubated again at 4 °C for 30 min. Slides were placed in a horizontal electrophoresis chamber and electrophoresed with buffer NaOH (0.3 M) and EDTA (1 mM) at 1 V/cm for 15 min. Samples were dried and stained with Vista Green DNA dye (Cell Biolabs, Singapore). Comet tails were imaged using a model DM 2500 fluorescent microscope (Leica, Wetzlar, Germany) and quantified by Komet 5.5 software (Andor Technology, Belfast, UK). A minimum of 50 cells were scored per treatment. All experiments were performed independently in triplicate.

Q: How did the “average weight of solid tumors” value ([1]; 10 mg/kg intraperitoneal twice weekly, after 20 days of treatment, control 693.4 mg) turn out when `CCCCCCCC/C=C/CCCc1cc(=O)c2ccccc2[nH]1` [JH62, E-2-(tridec-4-en-1-yl)-quinolin-4(1H)-one] was run?
A: 186.3 mg

Q: And the average tumor size ([1]; 10 mg/kg intraperitoneal twice weekly, three weeks, control approximately 900 mm^3)?
A: about 190 mm^3

Q: What about the reduced tumor volume ([1]; xenograft mice, 10 mg/kg) of the same compound?
A: 79%

Q: What about the reduced tumor weight ([1]; xenograft mice, 10 mg/kg) of the same compound?
A: 73%

Q: And the chromosome morphology (A549 cells [2])?
A: maintained normal morphology similar to the control

Q: What about the “cell death type (reversal by zVAD-fmk and Nec-1)” value (A549 lung cancer cells) of the same compound?
A: not associated with apoptosis or necroptosis

Q: And the pqsH transcription [3]?
A: unaffected

Q: And the “transcription of pqsA, pqsB, pqsC, pqsD, and pqsE” value [3]?
A: markedly upregulated

Q: And the “genomic DNA integrity (electrophoresis)” value (A549 cells [4])?
A: genomic DNA integrity remained unchanged

Q: And the comet tail analysis (A549 cells [5])?
A: maintenance of DNA integrity
